Data reported in US20040063692A1, “Bazedoxifene treatment regimens” (Wyeth, priority 2002, published 2004).

What was measured:
Format in all cases: in vivo, Female Sprague Dawley CD rats
[1] = Change in body weight in ovariectomized rats, daily or once weekly dosing; details: ovx rats, 6 weeks
From the text: (§1) The ability of bazedoxifene to be successfully administered on an extended dosing regimen was established in an in vivo standard pharmacological test procedure which evaluated bone mineral density (BMD), change in body weight, and uterine weight using bazedoxifene acetate as a representative compound of this invention. The following briefly describes the procedure used and results obtained in the standard pharmacological test procedure.
(§2) Female Sprague Dawley CD rats, ovariectomized (ovx) or sham ovx, were obtained 1 day after surgery from Taconic Farm (weight range 240-275 g). They were housed 3 or 4 rats/cage in a room on a 14/10 (light/dark) schedule and provided with food (Purina 500 rat chow) and water ad libitum. Treatment for all studies began 1 day after the animals arrival and dosed either daily or once weekly as indicated for 6 weeks. A group of age matched sham operated rats not receiving any treatment served as an intact, estrogen replete control group for each study. All treatments were prepared in 1% tween 80 in normal saline at defined concentrations so that the treatment volume was 0.1 mL/100 g body weight.
(§3) One week after BMD evaluation the rats were euthanized by carbon dioxide suffocation. The uteri were removed and the weights taken. The following table summarizes the results that were obtained. The sham group was not ovariectomized; all other groups were ovariectomized. In the table below, bazedoxifene acetate is abbreviated as BZA.

[2] = tested on: ovariectomized (ovx) rats; experiment: Bone mineral density (BMD) in ovariectomized rats, daily or once weekly dosing; details: measured five weeks after initiation of treatment
From the text: as §1, §2
Five weeks after the initiation of treatment and one week prior to the termination of the study, each rat was evaluated for bone mineral density (BMD). The BMD's of the proximal tibiae (PT) and fourth lumbar vertabrae (L4) were measured in anesthetized rats using a dual energy X-ray absorptiometer (Eclipse XR-26, Norland Corp. Ft. Atkins, Wis.). The dual energy X-ray absorptiometer (DXA) measurements for each rat were performed as follows: Fifteen minutes prior to DXA measurements, the rat was anesthetized with an intraperitoneal injection of 100 mg/kg ketamine (Bristol Laboratories, Syracuse, N.Y.) and 0.75 mg/kg acepromazine (Aveco, Ft.Dodge, Iowa). The rat was placed on an acrylic table under the DXA scanner perpendicular to its path; the limbs were extended and secured with paper tape to the surface of the table. A preliminary scan was performed at a scan speed of 50 mm/second with a scan resolution of 1.5 mm×1.5 mm to determine the region of interest in PT and L4. Small subject software was employed at a scan speed of 10 mm/second with resolution of 0.5 mm X 0.5 mm for final BMD measurements. The software allows the operator to define a 1.5 cm wide area to cover the total length of L4. The BMDs for respective sites were computed by the software as a function of the attenuation of the dual beam (46.8 KeV and 80 KeV) X-ray generated by the source underneath the subject and the detector travelling along the defined area above the subject. The data for BMD values (expressed in g/cm2) and individual scans were stored for statistical analysis.

[3] = tested on: ovariectomized (ovx) rats; experiment: Uterine weight in ovariectomized rats, daily or once weekly dosing; details: 6 weeks
From the text: as §1, §2, §3

Uterine Weight, Mean ± SEM ([3]; 0.3 mg/kg 1×/week): 131.3 ± 7.0 mg
Uterine Weight, Mean ± SEM ([3]; 0.3 mg/kg 7×/week): 140.3 ± 6.3 mg
Uterine Weight, Mean ± SEM ([3]; 1.0 mg/kg 1×/week): 149.9 ± 5.0 mg
Uterine Weight, Mean ± SEM ([3]; 3.0 mg/kg 1×/week): 127.3 ± 10.9 mg
SMILES: Cc1c(-c2ccc(O)cc2)n(Cc2ccc(OCCN3CCCCCC3)cc2)c2ccc(O)cc12 [BZA, 1-[4-(2-azepan-1-yl-ethoxy)-benzyl]-2-(4-hydroxy-phenyl)-3-methyl-1H-indol-5-ol]
Δ Body Weight, Mean ± SEM ([1]; 0.3 mg/kg 1×/week): 80.5 ± 2.0 g
Δ Body Weight, Mean ± SEM ([1]; 0.3 mg/kg 7×/week): 60 ± 5.6 g
Δ Body Weight, Mean ± SEM ([1]; 1.0 mg/kg 1×/week): 71.3 ± 4.8 g
Δ Body Weight, Mean ± SEM ([1]; 3.0 mg/kg 1×/week): 59.3 ± 7.0 g
Total BMD, Mean ± SEM ([2]; 0.3 mg/kg 1×/week): 556.56 ± 20.5 mg/mL
Trabecular BMD, Mean ± SEM ([2]; 0.3 mg/kg 1×/week): 361.93 ± 34.5 mg/mL
Total BMD, Mean ± SEM ([2]; 0.3 mg/kg 7×/week): 604.33 ± 18.6 mg/mL
Trabecular BMD, Mean ± SEM ([2]; 0.3 mg/kg 7×/week): 425.90 ± 26.3 mg/mL
Total BMD, Mean ± SEM ([2]; 1.0 mg/kg 1×/week): 562.90 ± 7.7 mg/mL
Trabecular BMD, Mean ± SEM ([2]; 1.0 mg/kg 1×/week): 353.03 ± 15.7 mg/mL
Total BMD, Mean ± SEM ([2]; 3.0 mg/kg 1×/week): 589.36 ± 10.9 mg/mL
Trabecular BMD, Mean ± SEM ([2]; 3.0 mg/kg 1×/week): 427.00 ± 10.0 mg/mL
